Values quoted from earlier work, collected in patent publication US9072693B2 (priority 2005, dated 2015).

What was measured:
women with PMS [1] = test system: women with PMS
psoriatic plaques = conditions: topical (Lu et al. 1996)
women with PMS [2] = conditions: higher doses once or twice during the luteal phase (Miner 2002)

Structure (SMILES): O=C([O-])[O-].[Ca+2] [calcium, calcium carbonate]
- reduction of overall PMS symptoms (women with PMS [1]; a number of studies, all 4 major categories of PMS): 50%
- overall reduction in total symptom scores compared to placebo (women with PMS [1]; elemental calcium 1200 mg per day as calcium carbonate, within 3 months of therapy, premenopausal women 18-45 years): 48%

Structure (SMILES): C=C1/C(=C\C=C2/CCC[C@]3(C)[C@@H]([C@H](C)CCCC(C)(C)O)CC[C@@H]23)C[C@@H](O)C[C@@H]1O [Calcitriol]
- effect in psoriatic plaques (psoriatic plaques): decrease keratinocyte proliferation, normalize keratinocyte differentiation and decrease immune activation in plaques

Structure (SMILES): C=C1CC[C@H](O)C/C1=C/C=C1\CCC[C@]2(C)[C@@H]([C@H](C)CCCC(C)C)CC[C@@H]12 [cholecalciferol]
- safety (10,000 IU daily for 5 months (Heaney)): safe
- daily dose at which toxicity occurs (oral ingestion, daily (Vieth R)): 40,000 IU

Structure (SMILES): CNCCC(Oc1ccc(C(F)(F)F)cc1)c1ccccc1 (stereo not drawn) [fluoxetine]
- effect on PMS symptomatology (women with PMS [2]): effective in reducing symptomatology
